Data set [1] concerns human foreskin primary keratinocyte cultures. Briefly: Hyaluronidase activity in primary foreskin keratinocyte cultures after calcium-induced differentiation. In kind it is cell-based. The following applies: 1.5 mM calcium compared to 0.05 mM calcium, 72 hr in culture. On the procedure:
Hyaluronidase activity also was characterized in normal keratinocytes. Primary foreskin keratinocyte cultures were generated from circumcision tissue from […]. Briefly, tissue was washed 5× in PBS with penicillin, streptomycin, and fungizone, followed by digestion overnight at 4° C. in dispase. Epithelium was stripped from mesenchymal tissue with forceps and digested in trypsin followed by plating on collagen-coated plates in KGM (keratinocyte growth medium) with 0.05 mM calcium (Clonetics; San Diego Calif.). Cells were used between the first and fourth passage. To test the effects of induction of differentiation on hyaluronidase activity, cells were plated into 6 well plates and, at confluence, the medium was either replaced with fresh KGM with 0.05 mM calcium or changed to KGM with 1.5 mM calcium.
Cell layers and conditioned media were harvested after 72 hr in culture. Cell layers were harvested with 60 mM octylglucoside with 50 U/ml DNase I (Boehringer Mannheim; Indianapolis Ind.) and Complete™ protease inhibitor cocktail (Boehringer Mannheim) in PBS. Cells were extracted for 30 min on ice followed by centrifugation at 10,000× g for 10 min. Conditioned media from each sample was treated with octylglucoside and protease inhibitors. […] Activity was expressed as rTRU/mg cellular protein.

The target in data set [2] is T1, human plasma hyaluronidase (Homo sapiens, UniProt Q12794).
T1 construct: made in house
T1 sequence (Q12794 22-435): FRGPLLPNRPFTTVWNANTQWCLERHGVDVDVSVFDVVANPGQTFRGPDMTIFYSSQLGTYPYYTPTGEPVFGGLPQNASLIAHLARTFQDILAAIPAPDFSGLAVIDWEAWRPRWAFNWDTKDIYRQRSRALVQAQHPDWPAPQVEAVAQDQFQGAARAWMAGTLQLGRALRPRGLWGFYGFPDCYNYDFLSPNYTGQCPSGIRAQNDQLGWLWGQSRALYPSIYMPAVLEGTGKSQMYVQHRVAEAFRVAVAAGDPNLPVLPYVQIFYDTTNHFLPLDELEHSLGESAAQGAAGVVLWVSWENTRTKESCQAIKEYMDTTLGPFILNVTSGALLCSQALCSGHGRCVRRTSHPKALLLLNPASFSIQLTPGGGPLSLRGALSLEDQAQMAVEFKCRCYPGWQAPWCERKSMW
Briefly: Effect of EDTA and added calcium on activity of purified human plasma hyaluronidase. In kind it is biochemical. The following applies: purified preparations of human plasma hyaluronidase. On the procedure: One hundred mg of human umbilical cord HA (ICN Pharmaceuticals; Irvine Calif.) was dissolved in 0.1 M MES, pH 5.0, to a final concentration of 1 mg/ml and allowed to dissolve for at least 24 hr at 4° C. prior to coupling of biotin. Sulfo-NHS (Pierce; Rockford Ill.) was added to the hyaluronate MES solution to a final concentration of 0.184 mg/ml. Biotin hydrazide (Pierce) was dissolved in DMSO as a stock solution of 100 mM and added to the HA solution to a final concentration of 1 mM. A stock solution of 1-ethyl-3-(3-dimethylaminopropyl) carbidodiimide (EDAC) was prepared as a 100 mM stock solution in distilled water and added to the HA biotin solution at a final concentration of 30 mM. This solution was left stirring overnight at 4° C. […]
(§1) The reaction was terminated by the addition of 200 μl/well of 6M Guanidine HCl followed by three washes of 300 μl/well with PBS, 2 M NaCl, 50 mM MgSO4, 0.05% TWEEN 20 detergent (Buffer B). […] The plate was incubated in the dark for 10-15 min, then read using a 492 nm filter in an ELISA plate reader (Titertek Multiskan PLUS; ICN) monitored by computer using the Delta Soft II plate reader software from Biometallics (Princeton N.J.). A standard curve using the bovine testicular hyaluronidase was generated by a four parameter curve fit of the commercial hyaluronidase preparation and unknown samples were interpolated through their absorbance at 492 nm.

Data set [3] can be described thus: Microtiter-based hyaluronidase assay on immobilized biotinylated HA, pH dependence of enzyme activity. In kind it is biochemical. The procedure: One hundred mg of human umbilical cord HA (ICN Pharmaceuticals; Irvine Calif.) was dissolved in 0.1 M MES, pH 5.0, to a final concentration of 1 mg/ml and allowed to dissolve for at least 24 hr at 4° C. prior to coupling of biotin. Sulfo-NHS (Pierce; Rockford Ill.) was added to the hyaluronate MES solution to a final concentration of 0.184 mg/ml. Biotin hydrazide (Pierce) was dissolved in DMSO as a stock solution of 100 mM and added to the HA solution to a final concentration of 1 mM. A stock solution of 1-ethyl-3-(3-dimethylaminopropyl) carbidodiimide (EDAC) was prepared as a 100 mM stock solution in distilled water and added to the HA biotin solution at a final concentration of 30 mM. This solution was left stirring overnight at 4° C. Unlinked biotin and EDAC were removed by dialysis against water with 3 changes of 1000× volume of water. The dialyzed, biotinylated HA (bHA) was aliquoted and stored at −20° C. for up to several months.
Sulfo-NHS was diluted to 0.184 mg/ml in water with the bHA at a concentration of 0.2 mg/ml and pipetted into 96 well COVALINK-NH plates (NUNC; Placerville N.J.) at 50 μl per well. EDAC was diluted to 0.123 mg/ml in water and pipetted into the COVALINK-NH plates with the HA solution resulting in a final concentration of 10 μg/well hyaluronate and 6.15 μg/well EDAC. […]
as §1, with “nm. […]” for “nm.”

The values below come from US6682904B1, “Specific inhibitors of hyaluronidase 2, and methods of identifying and using same” (Deliatroph Pharmaceuticals, Inc., priority 2002, dated 2004).

On to `[Ca+2]` [calcium], for which the “increase in hyaluronidase activity in conditioned media and cell layer” value in data set [1] was “approximately 25 fold”. Also, in data set [2] (added calcium), the “stimulatory effect on enzyme activity” value is on record as “nor did added calcium have a stimulatory effect”.

On to `O=C(O)CN(CCN(CC(=O)O)CC(=O)O)CC(=O)O` [EDTA, reference compound], for which, in data set [2], the “inhibitory effect on enzyme activity” value is “no inhibitory effect”.

B1: Recombinant human plasma hyaluronidase: immunoaffinity purified recombinant human plasma hyaluronidase (HYAL1), acid-active enzyme (protein)
chain: FRGPLLPNRPFTTVWNANTQWCLERHGVDVDVSVFDVVANPGQTFRGPDMTIFYSSQLGTYPYYTPTGEPVFGGLPQNASLIAHLARTFQDILAAIPAPDFSGLAVIDWEAWRPRWAFNWDTKDIYRQRSRALVQAQHPDWPAPQVEAVAQDQFQGAARAWMAGTLQLGRALRPRGLWGFYGFPDCYNYDFLSPNYTGQCPSGIRAQNDQLGWLWGQSRALYPSIYMPAVLEGTGKSQMYVQHRVAEAFRVAVAAGDPNLPVLPYVQIFYDTTNHFLPLDELEHSLGESAAQGAAGVVLWVSWENTRTKESCQAIKEYMDTTLGPFILNVTSGALLCSQALCSGHGRCVRRTSHPKALLLLNPASFSIQLTPGGGPLSLRGALSLEDQAQMAVEFKCRCYPGWQAPWCERKSMW
On to B1, for which the “pH optimum of hyaluronidase activity” value in data set [3] (0.1 rTRU enzyme, 50 mM buffers pH 3-8 without NaCl, 30 min at 37° C.) turned out to be 3.8 pH. For the same molecule, in data set [3] (above pH 4.5), the “enzyme activity above pH 4.5” value is “no detectable activity”. Also, the “enzyme activity at neutral pH” value in data set [3] (neutral pH) was “no activity was detected”.
